Series [1] is described as follows: Bioavailability of transdermal MENT gel formulations in rabbits (serum MENT by radioimmunoassay). Type of series: in vivo, New Zealand white rabbits. How it is done: The bioavailability of three transdermal MENT gel formulations (2 mg MENT/g gel) (formulations O, F and T) were studied in rabbits. Three New Zealand white rabbits weighing 3.5-4.5 kg were used in each group. To each animal, 0.2 g gel (0.4 mg MENT) or 0.4 g gel (0.8 mg MENT) was applied to 5×5 cm or 10×10 cm area of shaved skin for three consecutive days. On days 1 and 3, blood samples were collected at 0, 1, 2, 4 and 8 hours after application of the gel. Serum MENT levels were determined by radioimmunoassay.

Series [2] is described as follows: In vitro permeation (flux) across rat skin, modified Franz diffusion cell. In kind it is in vitro ADME, Sprague-Dawley rats. From the text: The flux of a specific formulation can be determined using a modified Franz diffusion cell as discussed herein. First, skin from female Sprague-Dawley rats (200-250 g body weight) can be obtained. The rats are anesthetized, the abdominal skin shaved and then excised. Excess fat and connective tissues are removed. The skin (1.77 cm^2) is sandwiched between the two chambers of a modified Franz diffusion cell, with the surface of the skin facing the upper (donor) chamber of the cell. A measured amount of the androgen containing formulation is applied to the surface of the skin, so that the skin is completely covered. The lower (recipient) chamber is filled with sterile saline, which completely bathes the lower surface of the rat skin. The contents of the recipient chamber are constantly stirred with a magnetic stirrer. Aliquots of the saline in the recipient chamber is removed at predetermined intervals and analyzed by HPLC. The saline remains in constant contact with the skin at all times. The Franz cell is maintained at 37° C. for the duration of each test.
An in vitro modified Franz cell system as described in Example 2 was used to study the permeability of testosterone and MENT from various transdermal dosage forms through rat skin. Various topical cream, gel and patch formulations were tested. The concentration of testosterone and MENT in all of the gels and creams described herein was 2 mg per gram of gel or cream. The following formulations were tested: […]
The gel (nearly identical to formulation T from Example 1) was produced by taking all of the aqueous components and mixing them under medium agitation in one vessel and all the organic, non-aqueous materials and mixing them in a separate vessel. The organic mixture and aqueous mixture were then mixed together using medium agitation provided by a paddle mixer. Of course, a lightning mixer or magnetic stirrer could also be used. The viscosity profile of the gel produced is illustrated in FIG. 20. Steroid permeation (in vitro) across Rat Skin for each of these gel formulations were tested using a two chambers of a modified Franz diffusion cell as previously described. Skin from female Sprague-Dawley rats (200-250 g body weight) were used in these studies. The rats were anesthetized, the abdominal skin was shaved and excised. Excess fat and connective tissues were removed. The skin (1.77 cm^2) was sandwiched between the two chambers of a modified Franz diffusion cell, with the surface of the skin facing the upper (donor) chamber of the cell. Approximately 0.5 gm of gel (1 mg steroid) was applied to the surface of the skin, so that the skin was completely covered with the gel. The lower (recipient) chamber was filled with 11.4 ml of sterile saline, which completely bathed the lower surface of the rat skin. The contents of the recipient chamber was constantly stirred with a magnetic stirrer during the experiment. Aliquots of 200 μL of the saline in the recipient chamber were removed at intervals of 1 h for 4 h; and analyzed by HPLC for either MENT on T. The saline remained in constant contact with the skin at all times. The Franz cell was maintained at 37° C. for the duration of the test.

As for `C[C@@H]1CC2=CC(=O)CC[C@@H]2[C@H]2CC[C@]3(C)[C@@H](O)CC[C@H]3[C@@H]21` [MENT, 7α-methyl-19-nortestosterone], in series [1] (0.4 vs 0.8 mg MENT, Table 1), the “Dose dependence of bioavailability” value is given as “dose dependent”. The “Permeation through rabbit skin / serum levels” value in series [1] (gel formulations O, F and T, FIGS. 14 to 19) is “permeated through rabbit skin and give measurable serum levels”. The “Permeation (concentrations and flux rates) through rat skin compared with testosterone” value in series [2] (all other formulations (1 patch, 2 creams and 7 gels), FIGS. 3 to 7 and 9 to 13) is “considerably higher concentrations and flux rates than that of testosterone”. Moreover, the “Flux across rat skin compared with testosterone” value in series [2] (certain dosage forms (FIGS. 3, 4, 6, 7, 10, 11 and 12)) is listed as “more than double that of testosterone”. Moreover, in series [2] (gel of Example 2, 0.5 gm gel (1 mg steroid), 1-4 h, FIG. 1), the “Rate of skin penetration compared with T” value is listed as “faster rate than T”. Also, in series [2] (gel of Example 2, each time period studied, FIG. 2), the “Steroid flux compared with T” value was “greater at each time period studied”. The “Flux compared with MENT Ac” value in series [2] (general statement, no data shown) is given as “generally greater than that of MENT Ac”. For the same molecule, in series [2] (summary statement, depending upon the particular transdermal formulation), the “Flux compared with testosterone” value is “as much as twice that of testosterone or more”.

The record behind these values is patent US20040126418A1, “Transdermal administration of MENT” (The Population Council, Inc., priority 1997, published 2004).
